Legend:
OVCAR-8 = experiment: NCI60 five-dose screen; format: cell-based; settings: Homo sapiens, OVCAR-8, ovarian cancer; for CC50: read-out: LC50 (the source's name)
HCC-2998 = experiment: NCI60 five-dose screen; format: cell-based; settings: Homo sapiens, HCC-2998, colon cancer; for CC50: read-out: LC50 (the source's name)
UO-31 = experiment: NCI60 five-dose screen; format: cell-based; settings: Homo sapiens, UO-31, renal cancer; for CC50: read-out: LC50 (the source's name)
UACC-257 = experiment: NCI60 five-dose screen; format: cell-based; settings: Homo sapiens, UACC-257, melanoma; for CC50: read-out: LC50 (the source's name)
MDA-MB-231/ATCC = experiment: NCI60 five-dose screen; format: cell-based; settings: Homo sapiens, breast cancer; for CC50: read-out: LC50 (the source's name)
LOX IMVI = experiment: NCI60 five-dose screen; format: cell-based; settings: Homo sapiens, melanoma; for CC50: read-out: LC50 (the source's name)
PC-3 = experiment: NCI60 five-dose screen; format: cell-based; settings: Homo sapiens, PC-3, prostate cancer; for CC50: read-out: LC50 (the source's name)
MDA-MB-468 = experiment: NCI60 five-dose screen; format: cell-based; settings: Homo sapiens, MDA-MB-468, breast cancer; for CC50: read-out: LC50 (the source's name)
MDA-MB-435 = experiment: NCI60 five-dose screen; format: cell-based, human; settings: Homo sapiens; for CC50: MDA-MB-435, MDA-MB-435, melanoma, read-out: LC50 (the source's name); for GI50: MDA-MB-435, melanoma
SF-295 = experiment: NCI60 five-dose screen; format: cell-based; settings: Homo sapiens, SF-295, CNS cancer; for CC50: read-out: LC50 (the source's name)
HOP-62 = experiment: NCI60 five-dose screen; format: cell-based; settings: Homo sapiens, HOP-62, NSC lung cancer; for CC50: read-out: LC50 (the source's name)
BT-549 = experiment: NCI60 five-dose screen; format: cell-based; settings: Homo sapiens, BT-549, breast cancer; for CC50: read-out: LC50 (the source's name)
HCT-116 = experiment: NCI60 five-dose screen; format: cell-based; settings: Homo sapiens, HCT-116, colon cancer; for CC50: read-out: LC50 (the source's name)
HL-60 (TB) = experiment: NCI60 five-dose screen; format: cell-based; settings: Homo sapiens, leukemia; for CC50: read-out: LC50 (the source's name)
CAKI-1 = experiment: NCI60 five-dose screen; format: cell-based; settings: Homo sapiens, CAKI-1, renal cancer; for CC50: read-out: LC50 (the source's name)
RPMI-8226 = experiment: NCI60 five-dose screen; format: cell-based; settings: Homo sapiens, RPMI-8226, leukemia; for CC50: read-out: LC50 (the source's name)
HT29 = experiment: NCI60 five-dose screen; format: cell-based; settings: Homo sapiens, HT-29, HT29, colon cancer; for CC50: read-out: LC50 (the source's name)
NCI-H460 = experiment: NCI60 five-dose screen; format: cell-based; settings: Homo sapiens, NCI-H460, NSC lung cancer; for CC50: read-out: LC50 (the source's name)
NCI-H23 = experiment: NCI60 five-dose screen; format: cell-based; settings: Homo sapiens, NCI-H23, NSC lung cancer; for CC50: read-out: LC50 (the source's name)
IGROV1 = experiment: NCI60 five-dose screen; format: cell-based; settings: Homo sapiens, IGROV-1; IGROV1, ovarian cancer
NCI-H226 = experiment: NCI60 five-dose screen; format: cell-based; settings: Homo sapiens, NCI-H226, NSC lung cancer; for CC50: read-out: LC50 (the source's name)
HOP-92 = experiment: NCI60 five-dose screen; format: cell-based; settings: Homo sapiens, HOP-92, NSC lung cancer; for CC50: read-out: LC50 (the source's name)
OVCAR-3 = experiment: NCI60 five-dose screen; format: cell-based; settings: Homo sapiens, OVCAR-3, ovarian cancer; for CC50: read-out: LC50 (the source's name)
[1] = system: T47D breast cancer cell line; experiment: Cytotoxicity MTT assay, T47D; format: cell-based, human; settings: Homo sapiens, T47D; MTT, 48 hours
Procedure, shortened: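 Read-out is absorbance at 570 nm of DMSO-solubilised formazan after a 3-hour incubation with 0.5 mg mL^−1 MTT. Percent viability is relative to vehicle (DMSO).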

MOLT-4 = experiment: NCI60 five-dose screen; format: cell-based; settings: Homo sapiens, MOLT-4, leukemia; for CC50: read-out: LC50 (the source's name)
OVCAR-5 = experiment: NCI60 five-dose screen; format: cell-based; settings: Homo sapiens, OVCAR-5, ovarian cancer; for CC50: read-out: LC50 (the source's name)
SK-MEL-2 = experiment: NCI60 five-dose screen; format: cell-based; settings: Homo sapiens, SK-MEL-2, melanoma; for CC50: read-out: LC50 (the source's name)
HCT-15 = experiment: NCI60 five-dose screen; format: cell-based; settings: Homo sapiens, HCT-15, colon cancer; for CC50: read-out: LC50 (the source's name)
M14 = experiment: NCI60 five-dose screen; format: cell-based; settings: Homo sapiens, M14, melanoma; for CC50: read-out: LC50 (the source's name)
HS 578T = experiment: NCI60 five-dose screen; format: cell-based; settings: Homo sapiens, breast cancer; for CC50: read-out: LC50 (the source's name)
DU-145 = experiment: NCI60 five-dose screen; format: cell-based; settings: Homo sapiens, DU-145, prostate cancer; for CC50: read-out: LC50 (the source's name)

## CCOC(=O)c1ccc(/C=N/NC(=O)c2[nH]c3ccc(Br)cc3c2-c2ccccc2)[nH]1 [Derivative 3i, Ethyl (E)-5-((2-(5-bromo-3-phenyl-1H-indole-2-carbonyl)hydrazono)methyl)-1H-pyrrole-2-carboxylate]
OVCAR-8
  GI50: 2.49 µM
  CC50: 47.6 µM
HCC-2998
  GI50: 2.51 µM
  CC50: 36.4 µM
UO-31
  GI50: 1.48 µM
  CC50: > 100 µM
UACC-257
  GI50: 2.97 µM
  CC50: 87.4 µM
MDA-MB-231/ATCC
  GI50: 2.63 µM
  CC50: 33.2 µM
LOX IMVI
  GI50: 2.26 µM
  CC50: 35.2 µM
PC-3
  GI50: 2.28 µM
  CC50: > 100 µM
MDA-MB-468
  GI50: 1.63 µM
  CC50: 36.6 µM
MDA-MB-435
  CC50: 27.6 µM
  GI50: 0.464 µM
SF-295
  GI50: 1.8 µM
  CC50: 38.1 µM
HOP-62
  GI50: 3.65 µM
  CC50: > 100 µM
BT-549
  GI50: 3.47 µM
  CC50: > 100 µM
HCT-116
  GI50: 3.24 µM
  CC50: > 100 µM
HL-60 (TB)
  GI50: 1.84 µM
  CC50: > 100 µM
CAKI-1
  GI50: 0.961 µM
  CC50: 74.2 µM
RPMI-8226
  GI50: 2.28 µM
  CC50: > 100 µM
HT29
  GI50: 2.32 µM
  CC50: 22.9 µM
NCI-H460
  GI50: 2.8 µM
  CC50: 41.4 µM
NCI-H23
  GI50: 2.59 µM
  CC50: 43.2 µM
IGROV1
  GI50: 2.02 µM
NCI-H226
  GI50: 3.13 µM
  CC50: 45.4 µM
HOP-92
  GI50: 2.33 µM
  CC50: > 100 µM
OVCAR-3
  GI50: 2.63 µM
  CC50: 40.7 µM
[1]
  IC50: 11.8 ± 1.4 µM
MOLT-4
  GI50: 2.49 µM
  CC50: > 100 µM
OVCAR-5
  GI50: 3.43 µM
  CC50: 38 µM
SK-MEL-2
  GI50: 2.38 µM
  CC50: 55 µM
HCT-15
  GI50: 2.48 µM
  CC50: 40.5 µM
M14
  GI50: 2.73 µM
  CC50: 71.9 µM
HS 578T
  GI50: 1.21 µM
  CC50: > 100 µM
DU-145
  GI50: 3.32 µM
  CC50: 38.7 µM

## CCc1ccc(/C=N/NC(=O)c2[nH]c3ccc(Br)cc3c2-c2ccccc2)[nH]1 [Derivative 3s, (E)-5-Bromo-N′-((5-ethyl-1H-pyrrol-2-yl)methylene)-3-phenyl-1H-indole-2-carbohydrazide]
OVCAR-8
  GI50: 0.337 µM
  CC50: 25.2 µM
HCC-2998
  GI50: 1.45 µM
  CC50: 35.1 µM
UO-31
  GI50: 0.644 µM
  CC50: 59.9 µM
UACC-257
  GI50: 1.32 µM
  CC50: 64.7 µM
MDA-MB-231/ATCC
  GI50: 0.63 µM
  CC50: 48.4 µM
LOX IMVI
  GI50: 0.722 µM
  CC50: 36.1 µM
PC-3
  GI50: 0.532 µM
  CC50: > 100 µM
MDA-MB-468
  GI50: 0.248 µM
  CC50: 25.9 µM
MDA-MB-435
  CC50: 34 µM
  GI50: 0.227 µM
SF-295
  GI50: 0.246 µM
  CC50: 31.9 µM
HOP-62
  GI50: 0.861 µM
  CC50: 46.2 µM
BT-549
  GI50: 0.979 µM
  CC50: 30.3 µM
HCT-116
  GI50: 0.325 µM
  CC50: 31.9 µM
HL-60 (TB)
  GI50: 0.235 µM
  CC50: > 100 µM
CAKI-1
  GI50: 1.04 µM
  CC50: 56.2 µM
RPMI-8226
  GI50: 0.375 µM
  CC50: > 100 µM
HT29
  GI50: 0.298 µM
  CC50: 33.8 µM
NCI-H460
  GI50: 0.396 µM
  CC50: 43.5 µM
NCI-H23
  GI50: 0.484 µM
  CC50: 42.6 µM
IGROV1
  GI50: 0.612 µM
  LC50 (concentration causing 50% net cell kill): 43.3 µM
NCI-H226
  GI50: 0.506 µM
  CC50: 32.3 µM
HOP-92
  GI50: 2.01 µM
  CC50: 40.1 µM
OVCAR-3
  GI50: 0.356 µM
  CC50: 36.1 µM
[1]
  IC50: 3.8 ± 1 µM
MOLT-4
  GI50: 0.464 µM
  CC50: > 100 µM
OVCAR-5
  GI50: 0.573 µM
  CC50: 38.7 µM
SK-MEL-2
  GI50: 0.647 µM
  CC50: 45.9 µM
HCT-15
  GI50: 0.349 µM
  CC50: 37.4 µM
M14
  GI50: 0.318 µM
  CC50: 38.7 µM
HS 578T
  GI50: 0.294 µM
  CC50: > 100 µM
DU-145
  GI50: 0.418 µM
  CC50: 36.7 µM
